Test results reported in patent publication US7629156B2, “Ethanol production in fermentation of mixed sugars containing xylose” (E.I. du Pont de Nemours and Company, priority 2006, dated 2009).

Key:
Type in all cases: cell-based, Zymomonas mobilis
[1] = tested on: ZW658 strain; test: Tube fermentation of ZW658 on glucose and xylose with various sugar alcohols (Example 13); settings: sugar alcohol in the medium vs control
Method: (§1) Approximately 1 ml of well mixed sample was obtained from flask or fermentor. First the sample absorbance was measured directly with a spectrophotometer (Amersham Biosciences Ultrospec 3300pro, GE Healthcare, Piscataway, N.J., USA). If the reading was lower than 0.6 unit, no dilution was needed. If the reading was higher than 0.6 unit, the sample was diluted with culture medium until the actual reading was in the range of 0.1 to 0.6 unit. The original OD was calculated from the dilution ratio and the actual reading.
(§2) The analysis of sugars, acetate, ethanol, and other by-products was done with an Agilent 1100 series HPLC and Agilent ChemStation software for LC 3D. The column was BioRad Aminex HPX-87H(HPLC Organic Analysis Column 125-0140) with BioRad Micro-Guard Cartridge Cation-H (125-0129). The operating conditions were:
In eight sterilized 50 ml screw-cap centrifuge tubes (Cat. No. 21008-178, VWR International, USA), 200 μl of ZW658 strain glycerol stock at OD600 of approximately 10 was inoculated into each flask with 25 ml of aqueous solution containing 92 g/L glucose, 82 g/L xylose, 10 g/L yeast extract (YE), 2 g/L KH2PO4, 1 g/L MgSO4.7H2O, and either 10 mM of sorbitol, arabitol, adonitol (also called ribitol), or galactitol; or 50 mM of arabitol, adonitol, or galactitol. The control had no sugar alcohol added. Initial pH was adjusted to 5.5 with 4 N H3PO4 solution. Fermentation was conducted at 33° C. and pH was not controlled. Samples were taken periodically between 0 and 40 hr. Samples were filtered through 0.22 micron filters, and the filtrates were analyzed by HPLC as described in General Methods for glucose, xylose, xylitol, and ethanol. Samples were diluted with medium (as described in General Methods) and the OD600 was measured to monitor cell growth. Results of growth and glucose utilization are given in FIGS. 20A and 20B, respectively. Results of xylose utilization and ethanol production are given in FIGS. 21A and 21B, respectively. Cultures with sorbitol or galactitol grew much faster and better than the control. Cultures with adonitol also grew better. After 40 hours, the OD600 were 7 to 8, for cultures supplemented with sorbitol or galactitol; the OD600 were about 5, for cultures supplemented with adonitol; while the OD600 were less than 1 for other cultures. […] The presence of sorbitol, galactitol, or adonitol allowed more xylose utilization, without production of xylitol.

[2] = tested on: ZW658 strain; test: Flask fermentation of ZW658 on high concentration glucose or xylose alone with sorbitol; settings: for OD600: after 48 hours, 33° C.; for ethanol production rate: 20 mM sorbitol vs no sorbitol
Method: as §1, §2
(§3) Glycerol stock of seed frozen at −80° C. was thawed, then inoculated into sterile culture tubes with mixture of 60 g/L glucose, 20 g/L xylose, 10 g/L yeast extract (YE), 10 g/L KH2PO4, 2 g/L (NH4)2SO4, and 1 g/L MgSO4. Initial pH was adjusted to 5.5 with 4 N KOH. This revival culture was grown statically overnight at 37° C. It was transferred into shake flasks with 75 g/L glucose, 25 g/L xylose, 10 g/L yeast extract (YE), 10 g/L KH2PO4, 2 g/L (NH4)2SO4, and 1 g/L MgSO4. Initial pH was adjusted to 5.5 with 4 N KOH. Growth was monitored by measuring OD600. When the OD reached approximately 5, a certain volume of the seed was withdrawn into a sterile syringe for inoculation.
In four sterilized 125 ml Erlenmeyer culture flasks (Cat. No. 30180-036, VWR International, USA), 10 ml of ZW658 strain seed culture at OD600 of approximately 5 was inoculated into each flask with 100 ml of aqueous solution containing 10 g/L yeast extract (YE), 2 g/L KH2PO4, 4 g/L KHCO3. Before inoculation, the first flask also contained 200 g/L glucose and 20 mM sorbitol, comparing to the second flask with 200 g/L glucose only. The third flask contained 200 g/L xylose and 20 mM sorbitol, comparing to the fourth flask with 200 g/L xylose only. After inoculation, sugar concentrations were diluted to about 180 g/L. Initial pH was adjusted to 5.5 with 4 NH3PO4 solution. Mixing speed was set at 150 rpm. Fermentation was conducted at 33° C. and pH was not controlled. Samples were taken periodically. Samples were filtered through 0.22 micron filters, and the filtrates were analyzed by HPLC as described in General Methods for compounds including glucose, xylose, ethanol, and xylitol. Samples were diluted with medium (as described in General Methods) and the OD600 was measured to monitor cell growth. […] After 48 hours, the OD600 were 9.94, 6.46, 5.37 and 5.45, respectively, for the first, second, third, and fourth flask.

[3] = tested on: ZW658 strain; test: Flask growth of ZW658 on glucose and xylose with sorbitol 0.5-10 mM; settings: after 14.25 hours, total sugar about 160 g/L
Method: as §1, §3
In five sterilized 125 ml Erlenmeyer culture flasks (Cat. No. 30180-036, VWR International, USA), 10 ml of ZW658 strain seed culture at OD600 of approximately 5 (measured at 600 nm) was inoculated into each flask with 100 ml of aqueous solution containing 100 g/L glucose, 80 g/L xylose, 10 g/L yeast extract (YE), 10 g/L KH2PO4, 2 g/L (NH4)2SO4, 1 g/L MgSO4.7H2O, and various concentrations of sorbitol (0, 0.5, 1, 2, and 10 mM). After inoculation, the total sugar concentration was about 160 g/L due to dilution by the seed culture. Initial pH was adjusted to 5.5 with 4 N KOH solution. Mixing speed was set at 150 rpm. Fermentation was conducted at 33° C. and pH was not controlled. Samples were taken periodically. Samples were diluted with medium (as described in General Methods) and the OD600 was measured to monitor cell growth. […] Cultures with higher concentration of sorbitol, in this range, grew faster and better. After 14.25 hours, the OD600 were 4.19, 7.10, 8.08, 8.62, and 10.1, respectively, for sorbitol concentrations of 0, 0.5, 1, 2, and 10 mM.

For `OC[C@@H](O)[C@@H](O)[C@H](O)[C@@H](O)CO` [sorbitol], the ethanol production [1] was “ethanol production was also better”, the xylose utilization [1] was “More xylose was utilized” and the OD600 ([2]; 200 g/L glucose (about 180 g/L after inoculation), 20 mM sorbitol) was 9.94. For the same compound, the OD600 ([2]; 200 g/L xylose (about 180 g/L after inoculation), 20 mM sorbitol) was 5.37, the ethanol production rate ([2]; glucose culture) was “more rapid” and the xylitol production ([2]; glucose only or xylose only cultures, 20 mM sorbitol) was “No xylitol was produced”. For the same compound, the effect on growth ([2]; high concentration glucose culture, 20 mM sorbitol) was “significantly stimulated growth”, the effect on growth ([2]; high concentration xylose culture, 20 mM sorbitol) was “almost no effect on growth” and the ethanol production rate ([2]; xylose only culture) was “at the same rate with and without sorbitol”. For the same compound, the OD600 ([3]; 0.5 mM sorbitol) was 7.10, the OD600 ([3]; 1 mM sorbitol) was 8.08 and the OD600 ([3]; 2 mM sorbitol) was 8.62. It also gave an OD600 ([3]; 10 mM sorbitol) of 10.1.
